The values below come from article PMC3016413, “An Antiretroviral/Zinc Combination Gel Provides 24 Hours of Complete Protection against Vaginal SHIV Infection in Macaques” (PLoS ONE, 2011).

In series [1] the test system is HIV-1 L100I/K103N double mutant. Also noted: method as in Fernández-Romero unpublished. Particulars: ref Fernández-Romero unpublished; read-out: IC50 against L100I/K103N double mutant; cited from earlier work.
Another series has as its system HIV-1 wild type. Also noted: method as in Fernández-Romero unpublished. Particulars: ref Fernández-Romero unpublished; read-out: IC50 against wild type; cited from earlier work.
Series [2] is described as follows: Vaginal pH and cytokines/chemokines in vaginal fluids after repeated gel. Format: in vivo, Rhesus macaques (Macaca mulatta). As to the method: PBMCs were isolated from EDTA blood using Ficoll-Hypaque density gradient centrifugation (Amersham Pharmacia Biotech, Uppsala, Sweden) as already described. RPMI 1640 (Invitrogen/GIBCO, Carlsbad, CA, USA) culture medium containing 2 mM L-glutamine (Invitrogen/GIBCO) 10 mM HEPES (N-2-hydroxyethylpiperazine-N'-2-ethanesulfonic acid) (Invitrogen/GIBCO), 50 µM 2-mercaptoethanol (Sigma) penicillin (100 U/ml) and streptomycin (100 µg/ml) (Invitrogen/GIBCO) and 1% heparinized human plasma (Innovative Research, Southfield, MI) was used for final re-suspension of PBMCs. Medium with 10% HI-FBS (heat inactivated fetal bovine serum) (Invitrogen/GIBCO) instead of 1% human plasma was used for the PBMC-174xCEM co-cultures. DNA was isolated from lymph nodes as described with the DNeasy® Blood & Tissue Kit (Qiagen Sciences, MD USA). […] Vaginal pH was determined by inserting pH-indicator strip (EMO Chemical Inc., Gibbstown, NJ) into the vaginal vault for 5 minutes to saturate the pH paper with vaginal fluid.
SIV-specific IFN-γ T cell responses were monitored by ELISPOT using AT-2 SIV (versus the no virus microvesicle controls) as the stimuli and SIV-specific antibodies by ELISA [36]. […] Cell-free vaginal fluids were analyzed for chemokine and cytokine expression using the monkey-reactive Beadlyte human 14-plex Detection System according to the manufacturer's instructions (Invitrogen). […]

For series [3] the following is noted: rat, in vivo; cited from earlier work.
In a further series the test system is HIV-1. Particulars: in vitro; ref Fernández-Romero unpublished; cited from earlier work.
For series [4], the system named is R5 and X4 viruses. Also on record: method as in PMID 16924181, PMID 18776937, PMID 7545297. Particulars: read-out: antiviral IC50; cited from earlier work.
For series [5], the system named is R5 and X4 viruses. Also noted: method as in PMID 16924181, PMID 18776937, PMID 7545297. Particulars: potentially virucidal; cited from earlier work.
The next series concerns HIV-1 Y181C mutant. Also noted: method as in Fernández-Romero unpublished. Particulars: ref Fernández-Romero unpublished; read-out: IC50 against Y181C mutant; cited from earlier work.
On the set-up of series [6]: method as in PMID 18086845. Particulars: 8 h after daily treatment for 7 days with 273 µM TMC120; cited from earlier work.

Structures are written as SMILES. Where two headings read alike, the source gives them in different places.

For the compound `O=C1Nc2ccc(Cl)cc2[C@@](C#CC2CC2)(C(F)(F)F)O1` [Efavirenz, reference compound], the IC50 was above 10000 nM in [1] and 0.6 nM in the series with HIV-1 wild type.
`CCC(=O)c1ccc(F)c([C@@H]2C[C@@H]2NC(=O)Nc2ccc(C#N)cn2)c1O` [MIV-150]: the IC50 was 900 nM in series [1]; 0.7 nM with HIV-1 wild type; below 1 nM in the series with R5 and X4 viruses [4]; 400 nM with R5 and X4 viruses [5]; 0.2 nM in the series on HIV-1 Y181C mutant. Further, the “impact on vaginal pH” value in [2] (before, during and 8 or 24 h after 2 week gel administration) is “no impact”. In addition, in series [2] (relative to carrageenan, 2 week daily gel administration), the “impact on CXCL8 and CCL2 levels in vaginal fluids” value is recorded as “no further impact”. In addition, the “time to becoming undetectable in plasma (short plasma half-life)” value in series [3] was at most 24 h. The “memory effect: time exposed cells remain resistant to infection” value in the series on HIV-1 is “up to 5 d”.
For `Cc1cc(C)c(Nc2ccnc(Nc3ccc(C#N)cc3)n2)c(C)c1` [TMC120], the “level of TMC120 associated with the cervical tissues” value in series [6] is 3 to 80 pg/mg.
